Activity calls are given as the source filed them.
Key:
[1] = cytotoxicity in HEK-293T cells, dose response, cytotoxicity control for BCR NF-kB inhibitor project, luminescence, B-cell screen hits (AID 489021); type: functional, cell-based;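 further: HEK-293T cells carrying an NF-kB luciferase reporter; cells exposed to compound for about 14 hours before viability readout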
[2] = biological target: T1, High affinity choline transporter 1 (Homo sapiens, UniProt Q9GZV3); assay: CHT inhibitors, dose response, cell-based, 5-point CRC, membrane potential dye (AID 504840); type: functional
T1 sequence (Q9GZV3 whole entry): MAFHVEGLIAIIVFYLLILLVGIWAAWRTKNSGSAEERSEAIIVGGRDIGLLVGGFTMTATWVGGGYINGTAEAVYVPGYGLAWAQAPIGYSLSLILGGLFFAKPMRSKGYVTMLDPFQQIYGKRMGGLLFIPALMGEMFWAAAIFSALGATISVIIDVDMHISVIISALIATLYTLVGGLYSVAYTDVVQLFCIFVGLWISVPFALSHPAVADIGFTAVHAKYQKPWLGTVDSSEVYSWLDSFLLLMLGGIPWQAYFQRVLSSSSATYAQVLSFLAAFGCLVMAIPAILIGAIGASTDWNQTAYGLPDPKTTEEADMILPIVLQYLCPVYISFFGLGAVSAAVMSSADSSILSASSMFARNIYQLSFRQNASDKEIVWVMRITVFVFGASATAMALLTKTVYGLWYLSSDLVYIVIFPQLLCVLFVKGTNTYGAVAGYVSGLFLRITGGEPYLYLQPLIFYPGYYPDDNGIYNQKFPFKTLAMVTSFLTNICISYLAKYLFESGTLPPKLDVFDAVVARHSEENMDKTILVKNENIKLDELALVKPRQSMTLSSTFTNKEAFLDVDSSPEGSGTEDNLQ

[3] = cytotoxicity in HEK-293T cells, dose response, cytotoxicity control for TCR NF-kB inhibitor project, luminescence, T-cell screen hits (AID 489026); type: functional, cell-based;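 further: cells exposed to compound about 14 hours before the viability readout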
[4] = biological target: T2, Endoribonuclease toxin MazF (Escherichia coli K-12, UniProt P0AE70); assay: MazF toxin RNase activators, dose response, biochemical, fluorescence, single-stranded RNA substrate, uHTS hits (AID 588481); type: functional
T2 sequence (P0AE70 whole entry): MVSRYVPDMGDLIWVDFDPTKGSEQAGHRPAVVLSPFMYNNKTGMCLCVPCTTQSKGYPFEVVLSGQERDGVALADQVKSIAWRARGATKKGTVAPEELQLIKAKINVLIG

[5] = biological target: T2, Endoribonuclease toxin MazF; assay: fluorescent RNA oligo signal without MazF, dose response, counter-screen for MazEF activator project, biochemical, fluorescence, single-stranded RNase substrate (AID 588502); type: functional
[6] = biological target: T3, Alkaline phosphatase, tissue-nonspecific isozyme (Homo sapiens, UniProt P05186); assay: human TNAP enzyme inhibitors, SAR follow-up, biochemical, luminescent, dose response (AID 1056)
T3 sequence (P05186 whole entry): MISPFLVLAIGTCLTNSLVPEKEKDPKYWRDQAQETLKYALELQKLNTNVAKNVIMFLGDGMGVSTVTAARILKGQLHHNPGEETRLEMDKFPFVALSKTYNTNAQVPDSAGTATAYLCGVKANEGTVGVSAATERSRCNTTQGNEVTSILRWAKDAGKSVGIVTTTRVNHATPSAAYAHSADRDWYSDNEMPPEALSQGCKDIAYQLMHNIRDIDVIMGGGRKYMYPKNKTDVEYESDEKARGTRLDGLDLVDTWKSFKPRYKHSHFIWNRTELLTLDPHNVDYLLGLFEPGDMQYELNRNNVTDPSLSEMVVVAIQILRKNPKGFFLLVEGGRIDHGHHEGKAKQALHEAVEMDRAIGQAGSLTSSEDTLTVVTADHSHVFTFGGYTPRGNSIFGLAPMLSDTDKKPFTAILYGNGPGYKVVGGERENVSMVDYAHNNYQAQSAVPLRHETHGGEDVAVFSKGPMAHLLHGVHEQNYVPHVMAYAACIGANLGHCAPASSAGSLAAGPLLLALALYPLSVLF

[7] = biological target: Glyceraldehyde-3-phosphate dehydrogenase (Homo sapiens, UniProt P04406)
[8] = HepG2 cell cytotoxicity, dose response, cytotoxicity control for Shn3 inhibitor project, CellTiter-Glo, cherry-picked (AID 624134); type: functional, cell-based
[9] = THP-1 cell cytotoxicity, dose response, cytotoxicity control for non-replicating M. tuberculosis project (AID 489025); type: functional
[10] = HepG2 cell cytotoxicity, dose response, cytotoxicity control for non-replicating M. tuberculosis project (AID 489018); type: functional; settings: Mycobacterium tuberculosis
[11] = cells; type: functional
[12] = Shn3 3'UTR reporter inhibitors, dose response, cell-based, Clone20 osteoblasts, firefly luciferase, cherry-picked (AID 624132); type: functional;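 further: firefly luciferase luminescence from reporter carrying the Shn3 3'UTR in osteoblasts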
[13] = Luminescence Cell-Based Dose Retest to Confirm Inhibitors of Cancer Stem Cells. [Related pubchem assays (depositor defined):AID2717, AID2721]; type: functional; settings: Homo sapiens
[14] = test system: BJ; assay: cells; type: functional, cell-based; settings: Homo sapiens
[15] = Vero E6 cell cytotoxicity, dose response, cytotoxicity control for non-replicating M. tuberculosis project, secondary assay (AID 492998); type: functional, VeroE6; settings: Vero C1008
[16] = control 3'UTR Renilla luciferase suppression, dose response, counter-screen for Shn3 inhibitor project, cell-based, Clone20-Shn3RL, cherry-picked (AID 624133); type: functional
[17] = test system: BJ; assay: cytotoxicity toward BJ-TERT fibroblasts, dose response, cell-based, RAS-independent, luminescence (AID 1933); type: functional; settings: Homo sapiens
[18] = cytotoxicity toward DRD oncogenic fibroblasts, dose response, cell-based, non-viral oncogenic, luminescence (AID 1934); type: functional; settings: Homo sapiens
[19] = test system: BJ; assay: cytotoxicity toward BJ-TERT-LT-ST fibroblasts, dose response, cell-based, RAS-independent, luminescence (AID 1935); type: functional; settings: Homo sapiens;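 further: BJ fibroblasts immortalized with TERT plus LT and ST oncogenes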
[20] = biological target: Nonstructural protein 1 (Influenza A virus, UniProt Q194T2); type: functional, Influenza A virus (A/California/07/2009(H1N1))
[21] = test system: INS1; assay: beta cell apoptosis inhibitors, cytokine rescue, dose response, luminescence, retest (AID 449756); type: functional, cell-based; settings: Rattus norvegicus;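 further: cell death triggered by IL-1 beta plus TNF-alpha plus IFN-gamma mixture; protective hits raise ATP signal compared with cytokine alone wells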
[22] = cells; type: functional, cell-based
[23] = cells; type: functional, cell-based; remark: listed apart in the source
[24] = test system: Streptococcus; assay: Group A Streptococcus viability loss, dose response, counter-screen for streptokinase expression inhibitor project, luminescence, BacTiterGlo (AID 1915); type: functional, organism-based;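 further: potency for reduction of bacterial viability or growth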
[25] = test system: Streptococcus sp. 'group A'; assay: growth inhibition of control SK(-) GAS strain, dose response, counter-screen for streptokinase expression inhibitor project, luminescence, kanamycin, BacTiterGlo, confirmation (AID 1900); type: functional, organism-based
[26] = biological target: T4, Streptokinase A (Streptococcus pyogenes serotype M1, UniProt P10520); assay: S. pyogenes streptokinase expression inhibitors, potency, dose response, plasminogen activation absorbance, OD405 (AID 1914); type: functional, Streptococcus pyogenes M1 GAS;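 further: secreted streptokinase activity via plasminogen activation per viability signal from cell pellet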
T4 sequence (P10520 whole entry): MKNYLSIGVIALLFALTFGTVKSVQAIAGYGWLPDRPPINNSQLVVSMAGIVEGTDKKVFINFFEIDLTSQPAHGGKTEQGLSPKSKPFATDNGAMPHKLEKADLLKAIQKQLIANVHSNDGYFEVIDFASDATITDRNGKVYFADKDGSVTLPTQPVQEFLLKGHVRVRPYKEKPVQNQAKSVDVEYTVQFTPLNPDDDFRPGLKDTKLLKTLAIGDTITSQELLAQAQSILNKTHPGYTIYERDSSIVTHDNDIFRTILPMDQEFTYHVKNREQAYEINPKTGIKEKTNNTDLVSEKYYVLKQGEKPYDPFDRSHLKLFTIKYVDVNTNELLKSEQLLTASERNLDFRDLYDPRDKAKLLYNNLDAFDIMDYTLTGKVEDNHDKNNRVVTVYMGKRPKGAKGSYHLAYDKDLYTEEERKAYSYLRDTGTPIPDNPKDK

[27] = test system: HEK293; assay: inhibitors of LMP1-driven NF-kB reporter, dose response, cell-based, HEK293, luciferase, cherry-pick (AID 588343); type: functional; settings: Homo sapiens

Chain of Glyceraldehyde-3-phosphate dehydrogenase (P04406 whole entry): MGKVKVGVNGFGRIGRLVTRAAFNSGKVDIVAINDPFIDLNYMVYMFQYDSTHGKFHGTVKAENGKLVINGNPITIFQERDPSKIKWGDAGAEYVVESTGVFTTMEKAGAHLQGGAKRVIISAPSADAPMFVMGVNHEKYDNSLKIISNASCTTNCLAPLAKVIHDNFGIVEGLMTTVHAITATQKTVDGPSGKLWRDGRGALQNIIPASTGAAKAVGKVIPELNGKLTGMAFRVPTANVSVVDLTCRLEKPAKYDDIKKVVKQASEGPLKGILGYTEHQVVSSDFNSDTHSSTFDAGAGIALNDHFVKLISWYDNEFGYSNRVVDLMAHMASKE
Chain of Nonstructural protein 1 (Q194T2 whole entry): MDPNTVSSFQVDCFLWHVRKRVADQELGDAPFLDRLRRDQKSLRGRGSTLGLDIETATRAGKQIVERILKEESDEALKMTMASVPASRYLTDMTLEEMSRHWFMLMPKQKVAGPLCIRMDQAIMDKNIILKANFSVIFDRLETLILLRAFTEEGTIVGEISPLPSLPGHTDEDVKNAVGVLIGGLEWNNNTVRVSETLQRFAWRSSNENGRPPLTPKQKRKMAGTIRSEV

## C=CCN1C(=O)NC(=O)/C(=C(/CC)NC(C)c2ccccc2)C1=O (stereo unspecified)
[1]
  IC50: > 80 µM (inactive)
[2]
  IC50: 1.91 µM (active)

## CC(C)(C)C(=O)Oc1cccc(Nc2ncnc3ccccc23)c1
[2]
  IC50: 13.8 µM (active)

## CCCc1cc(C(=O)N/N=C/c2ccc(CC)s2)c2ccccc2n1
[3]
  IC50: > 80 µM (inactive)

## CCCCOc1ccc(OCCCC)c2c1NC1(N2)C(=O)N(C(C)=O)c2ccccc21
[4]
  EC50: > 99 µM (inactive)
[5]
  EC50: > 99 µM (inactive)

## CN(C)c1ccc(/C=N/NC(=O)c2cnc3ccccc3c2)cc1
[4]
  EC50: > 99 µM (inactive)
[5]
  EC50: 26.4 µM (inactive)

## Cn1nc(C(=O)O)cc1-c1ccc(F)cc1
[6]
  IC50: > 100 µM (inactive)
[7]
  IC50: > 100 µM (not active)

## Cc1cc(S(=O)(=O)c2ccc([N+](=O)[O-])cn2)ccc1Br
[8]
  AC50: 21.4 µM (active)
[9]
  CC50: 12.2 µM (active)
[10]
  CC50: 18 µM (active)
[11]
  IC50: 0.68 µM (active)
[12]
  AC50: 3.69 µM (active)
[13]
  AC50: 1.86 µM (active)
[14]
  EC50: 17.6 µM (active)
[15]
  CC50: 13.6 µM (active)
[16]
  AC50: 17.5 µM (active)
[17]
  EC50: 3.26 µM (active)
[18]
  EC50: 6.93 µM (inconclusive)
[19]
  EC50: 17 µM (active)

## c1ccc(CN2CCN=C2c2cccnc2)cc1
[6]
  IC50: > 100 µM (inactive)
[7]
  IC50: > 100 µM (not active)

## Cc1ccnc2c1ccc1c(C)ccnc12
[8]
  AC50: > 70 µM (inactive)
[20]
  IC50: 0.472 µM (active)
[21]
  AC50: 1.92 µM (active)
[12]
  AC50: 0.857 µM (active)
[13]
  AC50: 1.54 µM (active)
[16]
  AC50: > 70 µM (inactive)
[3]
  IC50: > 80 µM (inactive)

## Cc1n[nH]c(C)c1CCCCOc1ccccc1[N+](=O)[O-]
[2]
  IC50: 12.6 µM (active)

## CCOc1ccc(S(=O)(=O)Nc2nc3ccccc3nc2Cl)cc1
[6]
  IC50: > 100 µM (inactive)
[7]
  IC50: > 100 µM (not active)

## CCOc1cccc(/C=N/Nc2ccc(S(=O)(=O)N(CC)CC)cn2)c1O
[22]
  EC50: > 350 µM (not active)
[23]
  EC50: 49.6 µM (active)
[24]
  EC50: 9.29 µM (active)
[25]
  EC50: 6.87 µM (active)
[21]
  AC50: 1.12 µM (active)
[14]
  EC50: 4.12 µM (active)
[17]
  EC50: 2.86 µM (active)
[26]
  EC50: > 150 µM (not active)
[3]
  IC50: > 80 µM (inactive)
[18]
  EC50: 3.94 µM (active)
[27]
  AC50: 4.85 µM (active)
[19]
  EC50: 7.7 µM (active)

## CCCCNC(=O)/C(C#N)=c1\s/c(=C\c2ccccc2OC(F)F)c(=O)n1CCCOC
[4]
  EC50: > 99 µM (inactive)
[5]
  EC50: 88.5 µM (inactive)

## COc1ccc(S(=O)(=O)Nc2cnc3ccccc3c2)c(OC)c1
[6]
  IC50: 19.5 µM (active)
[7]
  IC50: > 100 µM (not active)

## Cn1nc(C(F)(F)F)c(-c2ccccc2)c1NC(=O)c1cccnc1
[2]
  IC50: 13.2 µM (active)

— ChEMBL document CHEMBL1201862, “PubChem BioAssay data set” (2004)
